The values below come from US8673904B2, “Epoxide inhibitors of cysteine proteases” (The Board of Trustees of the Leland Stanford Junior …, priority 2006, dated 2014).

In one test the test system is cathepsin targets. Description: Cathepsin targets of the compounds (Table 4). The format is biochemical, rat. Conditions: cathepsin target(s) inhibited; General = all cathepsins. On the procedure:
(§1) Also included in the table for comparison are known compounds JPMOEt and JPMOH (also known as JPM-565). See Meara and Rich, J. Med. Chem. 39:3357-3366, 1996; Bogyo et al, Chem. Biol. 7:27-38, 2000; and Joyce et al., Cancer Cell 5:443-453, 2004. The table also lists cathepsin targets and measured IC50 values for specific compounds. To determine these values, 1 mg/ml of rat liver lysate was incubated with a series of concentrations of the inhibitor for 20 minutes. Then, 1 ul of a radiolabled general cathepsin probe, DCG-04, was added to the solutions and incubated for 1 hour. After fixing and drying the gel, the residual enzyme activity was measured using ImageJ software. The measurements were then transferred to GraphPad Prism 4 to calculate the IC50 values.

In the next test the target is T1, CatZ (Cathepsin Z) (Rattus norvegicus, UniProt Q9R1T3).
T1 construct: from tissue; host or cells: rat liver lysate
The experiment in a line: IC50 by competition with radiolabeled general cathepsin probe DCG-04 in rat liver lysate. The class given is biochemical. Conditions: 1 mg/ml rat liver lysate, inhibitor 20 minutes, then DCG-04 1 hour. How it is done:
as §1

The next test has as its target T2, CatB (Rattus norvegicus, UniProt P00787).
T2 construct: from tissue; host or cells: rat liver lysate / homogenate
The test is described as above. The format is biochemical. The following applies: 1 mg/ml rat liver lysate, inhibitor 20 minutes, then DCG-04 1 hour. On the procedure:
as §1

A further test addresses T3, CatH (Rattus norvegicus, UniProt P00786).
T3 construct: from tissue; host or cells: rat liver lysate
T3 sequence (P00786 96-333): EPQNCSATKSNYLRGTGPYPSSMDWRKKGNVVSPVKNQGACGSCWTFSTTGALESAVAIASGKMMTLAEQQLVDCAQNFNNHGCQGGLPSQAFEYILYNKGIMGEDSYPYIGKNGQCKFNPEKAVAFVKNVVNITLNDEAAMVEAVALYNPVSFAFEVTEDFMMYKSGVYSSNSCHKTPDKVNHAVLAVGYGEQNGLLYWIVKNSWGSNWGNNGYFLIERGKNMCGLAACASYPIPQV
The description is as above. The class given is biochemical. The following applies: 1 mg/ml rat liver lysate, inhibitor 20 minutes, then DCG-04 1 hour. On the procedure:
as §1

In a further test the target is T4, CatC (Rattus norvegicus, UniProt P80067).
T4 construct: from tissue; host or cells: rat liver lysate
T4 sequence (P80067 25-462): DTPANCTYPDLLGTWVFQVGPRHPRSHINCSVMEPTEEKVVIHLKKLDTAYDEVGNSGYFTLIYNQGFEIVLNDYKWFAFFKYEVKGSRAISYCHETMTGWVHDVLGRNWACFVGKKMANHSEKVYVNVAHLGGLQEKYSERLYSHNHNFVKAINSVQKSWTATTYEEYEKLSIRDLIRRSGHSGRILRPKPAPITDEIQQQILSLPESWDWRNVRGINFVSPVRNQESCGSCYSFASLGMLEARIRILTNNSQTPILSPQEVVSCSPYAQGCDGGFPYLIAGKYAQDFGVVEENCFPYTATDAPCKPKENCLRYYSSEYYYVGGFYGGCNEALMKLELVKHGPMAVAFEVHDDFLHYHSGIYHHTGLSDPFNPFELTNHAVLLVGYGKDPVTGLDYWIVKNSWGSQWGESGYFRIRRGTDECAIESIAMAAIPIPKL
The description is as above. The class given is biochemical. The following applies: 1 mg/ml rat liver lysate, inhibitor 20 minutes, then DCG-04 1 hour. How it is done: as §1

Another test relates to RIP-Tag cancer model. The following applies: Joyce et al., Cancer Cell 5:443-453, 2004; cited from earlier work.

Molecules are shown by their SMILES.

T2 sequence (P00787 80-333): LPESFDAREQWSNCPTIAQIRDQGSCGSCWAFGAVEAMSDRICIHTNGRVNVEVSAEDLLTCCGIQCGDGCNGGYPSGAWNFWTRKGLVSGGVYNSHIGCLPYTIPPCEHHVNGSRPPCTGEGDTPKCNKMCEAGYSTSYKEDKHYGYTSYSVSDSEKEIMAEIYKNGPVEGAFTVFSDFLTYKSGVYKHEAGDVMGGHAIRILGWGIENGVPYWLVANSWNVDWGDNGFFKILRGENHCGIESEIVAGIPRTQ
T1 sequence (Q9R1T3 64-306): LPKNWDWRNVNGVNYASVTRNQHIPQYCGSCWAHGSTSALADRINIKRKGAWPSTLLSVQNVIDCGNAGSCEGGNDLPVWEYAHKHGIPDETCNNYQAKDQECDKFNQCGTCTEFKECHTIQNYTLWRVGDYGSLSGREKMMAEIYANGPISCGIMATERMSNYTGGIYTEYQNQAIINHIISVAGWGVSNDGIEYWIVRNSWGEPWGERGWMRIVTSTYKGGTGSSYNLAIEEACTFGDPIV

In the case of `CC(C)C[C@H](NC(=O)[C@H]1O[C@@H]1C(=O)O)C(=O)NCCc1ccc(O)cc1` [JPMOH, reference compound], in the test with cathepsin targets, the Target result is “General”. The 50% inhibitory concentration (IC50) (commonly the concentration at which inhibition is half-maximal) at CatZ (Cathepsin Z) was 100 nM; on CatB, 400 nM; at CatH it was 580 nM; at CatC, 1000 nM. Moreover, the “efficacy in the RIP-Tag cancer model” value with RIP-Tag cancer model was “shown to have efficacy in the RIP-Tag cancer model”.
